{
  "source": "patent US20220133717A1",
  "about": "“RABEXIMOD IN THE TREATMENT OF RHEUMATOID ARTHRITIS” (CYXONE AB, priority 2020, published 2022)",
  "test_system": "patients with moderate or severe active rheumatoid arthritis",
  "experiment": "Phase II clinical trial: efficacy (ACR20/50, DAS28, EULAR response, ACR components)",
  "type": "in vivo, human",
  "procedure": "The primary objective of this study was to evaluate the efficacy (American College of Rheumatology 20) of Rabeximod administered orally once daily for 12 weeks in combination with a stable dose of methotrexate in patients with moderate or severe active rheumatoid arthritis. Efficacy was evaluated by American College of Rheumatology 20 (66/68 joint count) after 12 weeks of treatment.\nThe primary endpoint of this study is the American College of Rheumatology (ACR20) 20 improvement measured after 12 weeks of treatment with study drug. The ACR20 is a composite score defined as an improvement of 20% in the number of swollen and tender joints and a 20% improvement in 3 of the following 5: • Patient self-assessed disability by modified Health Assessment Questionnaire (mHAQ) • Physician Global assessment • Subject Global assessment • Patient pain assessment • Acute phase reactant (C-reactive protein [CRP]) Secondary efficacy endpoints were as follows: • ACR20 improvement measured after 4 and 8 weeks of treatment • Subgroup analysis of ACR20 results from patients enrolled with baseline CRP >1.5 mg/dL. • ACR50/70 improvement measured after 4, 8 and 12 weeks • Original Disease Activity Score (DAS) change from baseline (according to the European League Against Rheumatism [EULAR] Response Criteria). Note: the Original DAS was replaced with DAS28 • Change from baseline in: number of swollen/tender joints, morning stiffness duration. Subject and Physician Global assessments, pain assessed by Visual Analogue Scale (VAS), self-assessed physical disability (mHAQ), erythrocyte sedimentation rate (ESR) and CRP • The evaluation of pharmacokinetic (PK) and pharmacodynamic (PD) high sensitive CRP, TNF-a, interleukin-6 [IL-6] and anti-cyclic citrullinated peptide antibody [anti-CCP]) over time\nThis was a multicentre, multinational, dose-ranging, randomised, double-blind, multiple dose, placebo-controlled, parallel-group study of Rabeximod administered orally in a total of 225 enrolled patients with moderate or severe active RA. All patients must have been receiving weekly methotrexate treatment for at least 16 weeks (with unchanged doses for at least 8 weeks) up to Day 0 of study.\nDiagnosis of RA was based on the American Rheumatism Association (ARA) 1987 revised criteria, having an ACR global functional class of 1 to 3, stable methotrexate dose of at least 15 mg per week and central laboratory CRP level at study entry of at least 1.5 mg/dL and clinical findings of active disease (at least 6 swollen and 6 tender joints to palpation). Individual patient duration in the study was approximately 126 days (a 14-day screening period, an 84-day treatment period [12 weeks], and a 28 day [4-week] follow-up period).\nAfter meeting the inclusion and exclusion criteria and providing informed consent, patients were randomly assigned (1:1:1:1 ratio) to receive 1 of the following treatments: • 6.25 mg Rabeximod • 15 mg Rabeximod • 37.5 mg Rabeximod • Placebo\nAn assessment of tender and swollen joints was performed for the ACR response criteria. Joints to be evaluated for disease activity assessment (using the ACR 66/68 joint count) included the following: temporomandibular, sternoclavicular, acromioclavicular, shoulder, elbow, wrist, all 5 metacarpophalangeal joints, 4 proximal interphalangeal joints, 4 distal interphalangeal, thumb interphalangeal joint, hip (for tenderness only), knee, ankle, tarsus, 5 metatarsophalangeal, 4 proximal interphalangeal and foot thumb interphalangeal joints at each side. In accordance with the protocol, an independent joint reviewer performed the rheumatology examination, where possible. If an independent joint reviewer was not available, the same examiner performed all rheumatology examinations for a patient throughout the study.\nPatient satisfaction in performing activities of daily living was assessed using the mHAQ. […]",
  "data": [
    {"smiles": "Cc1cc2nc3c4cc(Cl)ccc4n(CC(=O)NCCN(C)C)c3nc2cc1C", "note": "[Rabeximod, 9-Chloro-2,3-dimethyl-6-(N,N-dimethylaminoethylamino-2-oxoethyl)-6H-indolo-[2,3-b]quinoxaline]", "values": [
      {"measurement": "percentage mean reduction in joint pain, comparison of dose groups", "setting": "15 mg group", "value": "best results"},
      {"measurement": "percentage of patients achieving ACR50, comparison of dose groups", "setting": "15 mg group", "value": "best results"},
      {"measurement": "reduction in duration of morning stiffness, comparison of dose groups", "setting": "15 mg group, especially at week 16", "value": "best results"},
      {"measurement": "percentage of patients achieving ACR50 response compared with placebo", "setting": "\"At Week\" (number not given), 6.25, 15 and 37.5 mg groups", "value": "higher percentage"},
      {"measurement": "change from baseline in each component of the ACR response (joint count 66/68, Global assessments VAS, joint pain, HAQ-DI, CRP, ESR)", "setting": "Rabeximod groups", "value": "notable decrease (improvement)"},
      {"measurement": "change in mean DAS28 score from baseline", "setting": "Week 12, 6.25 mg group (placebo −0.983)", "value": "−1.063", "unit": "points"},
      {"measurement": "change in mean DAS28 score from baseline", "setting": "Week 12, 15 mg group (placebo −0.983)", "value": "−1.214", "unit": "points"},
      {"measurement": "change in mean DAS28 score from baseline", "setting": "Week 12, 37.5 mg group (placebo −0.983)", "value": "−1.204", "unit": "points"},
      {"measurement": "proportion of patients achieving ACR20 compared with placebo", "setting": "Week 12, Rabeximod groups", "value": "larger proportion"},
      {"measurement": "increases in the proportions of patients achieving ACR50", "setting": "Week 16", "value": "greater"},
      {"measurement": "percentage mean reduction from baseline in swollen (66) and tender (68) joint counts, Physician and Subject Global assessments", "setting": "Week 16", "value": "notable improvements"},
      {"measurement": "percentage of patients achieving a good or moderate EULAR response", "setting": "Week 16, 6.5 mg group (placebo 38.5%)", "value": 37.8, "unit": "%"},
      {"measurement": "proportions of patients achieving ACR20, comparison of dose groups", "setting": "Week 16, 15 mg group", "value": "best results"},
      {"measurement": "reduction in swollen/tender joint counts and Global assessments, comparison of dose groups", "setting": "Week 16, 15 mg group", "value": "best results"},
      {"measurement": "percentage of patients achieving a good or moderate EULAR response", "setting": "Week 16, 15 mg group (placebo 38.5%)", "value": 67.7, "unit": "%"},
      {"measurement": "percentage of patients achieving a good or moderate EULAR response", "setting": "Week 16, 37.5 mg group (placebo 38.5%)", "value": 55.8, "unit": "%"},
      {"measurement": "proportions of patients achieving ACR20", "setting": "Week 16, Rabeximod groups", "value": "continued to increase"},
      {"measurement": "duration of morning stiffness compared with placebo", "setting": "majority of time points, Rabeximod groups", "value": "greater reductions (improvement)"},
      {"measurement": "improvement in symptoms compared with placebo (plus methotrexate)", "setting": "onset at least 8-12 weeks after first dose, further improvement at Week 16", "value": "greater improvement"},
      {"measurement": "percentage mean reduction from baseline in joint pain", "setting": "week 1", "value": "notable"}
    ]}
  ]
}
